Data published in ChEMBL document CHEMBL5665443, “Enzyme Inhibitor Single Concentration assay results for EUbOPEN Chemogenomics Library” (2024).

Experiments:
Settings in all cases: Compound Concentration 10.0 uM, Hit No
[1] = molecular target: DNA-3-methyladenine glycosylase (Homo sapiens) (UniProt P29372);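 note: enzyme assay where MPG cuts a quenched duplex DNA oligonucleotide probe, paired with APE1 for strand incision and turnover, read as fluorescence at 594 nm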
Description: Inhibition of MPG by quantifying inhibition of MPG-mediated cleavage and dissociation of quenched duplex DNA oligonucleotides, measured as fluorescence at 594 nm. To generate a functional strand incision and increase turn-over this assay is coupled to APE1.

[2] = molecular target: Endonuclease 8-like 1 (Homo sapiens) (UniProt Q96FI4);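 note: fluorescence at 594 nm from quenched duplex DNA oligonucleotides released by NEIL1 cleavage and strand separation, reported as reduction of this enzyme activity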
Description: Inhibition of NEIL1 by quantifying inhibition of NEIL1-mediated cleavage and dissociation of quenched duplex DNA oligonucleotides, measured as fluorescence at 594 nm.

[3] = molecular target: G/T mismatch-specific thymine DNA glycosylase (Homo sapiens) (UniProt Q13569);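 note: human TDG cleavage of quenched duplex DNA oligonucleotides coupled to APE1, strand release read as fluorescence at 594 nm, inhibition of TDG activity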
Description: Inhibition of TDG by quantifying inhibition of TDG-mediated cleavage and dissociation of quenched duplex DNA oligonucleotides, measured as fluorescence at 594 nm. To generate a functional strand incision and increase turn-over this assay is coupled to APE1.

[4] = molecular target: T1, Endonuclease III-like protein 1 (Homo sapiens) (UniProt P78549);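 note: enzyme assay tracking NTHL1 cutting and release of a quenched double-stranded DNA oligo substrate, read as fluorescence at 594 nm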
T1 sequence (whole entry): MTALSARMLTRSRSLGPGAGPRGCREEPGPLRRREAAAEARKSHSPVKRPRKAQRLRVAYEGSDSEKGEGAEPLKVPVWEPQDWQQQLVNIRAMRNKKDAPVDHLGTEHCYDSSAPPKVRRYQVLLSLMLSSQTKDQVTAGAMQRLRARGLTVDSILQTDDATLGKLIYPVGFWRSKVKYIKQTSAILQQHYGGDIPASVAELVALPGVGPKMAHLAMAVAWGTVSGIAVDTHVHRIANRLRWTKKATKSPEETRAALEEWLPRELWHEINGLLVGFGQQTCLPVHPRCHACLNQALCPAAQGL
Description: Inhibition of NTHL1 by quantifying inhibition of NTHL1-mediated cleavage and dissociation of quenched duplex DNA oligonucleotides, measured as fluorescence at 594 nm.

[5] = molecular target: T2, Adenine DNA glycosylase (Homo sapiens) (UniProt Q9UIF7);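 note: human MUTYH activity read as 594 nm fluorescence from cleavage and release of a quenched DNA duplex, coupled with APE1 for strand incision, lower signal meaning inhibition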
T2 sequence (whole entry): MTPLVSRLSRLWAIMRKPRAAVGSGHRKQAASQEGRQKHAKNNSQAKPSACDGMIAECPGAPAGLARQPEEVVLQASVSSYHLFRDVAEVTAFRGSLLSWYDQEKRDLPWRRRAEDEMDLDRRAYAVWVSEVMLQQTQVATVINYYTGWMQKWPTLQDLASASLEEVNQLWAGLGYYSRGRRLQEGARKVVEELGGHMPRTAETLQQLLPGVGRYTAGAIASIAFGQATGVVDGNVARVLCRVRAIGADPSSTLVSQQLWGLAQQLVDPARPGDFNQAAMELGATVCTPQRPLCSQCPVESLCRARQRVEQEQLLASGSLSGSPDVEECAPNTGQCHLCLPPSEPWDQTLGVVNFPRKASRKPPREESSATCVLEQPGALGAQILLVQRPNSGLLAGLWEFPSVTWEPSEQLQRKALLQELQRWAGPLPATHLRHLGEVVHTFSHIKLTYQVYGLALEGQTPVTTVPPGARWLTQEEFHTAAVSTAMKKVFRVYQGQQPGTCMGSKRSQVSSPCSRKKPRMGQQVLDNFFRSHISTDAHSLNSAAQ
Description: Inhibition of MUTYH by quantifying inhibition of MUTYH-mediated cleavage and dissociation of quenched duplex DNA oligonucleotides, measured as fluorescence at 594 nm. To generate a functional strand incision and increase turn-over this assay is coupled to APE1.

[6] = molecular target: Uracil-DNA glycosylase (Homo sapiens) (UniProt P13051);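 note: UNG excision on a quenched double-stranded DNA oligo probe, with APE1 added for strand incision and turnover, read as fluorescence at 594 nm as strands separate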
Description: Inhibition of UNG by quantifying inhibition of UNG-mediated cleavage and dissociation of quenched duplex DNA oligonucleotides, measured as fluorescence at 594 nm. To generate a functional strand incision and increase turn-over this assay is coupled to APE1.

[7] = molecular target: T3, Endonuclease 8-like 2 (Homo sapiens) (UniProt Q969S2);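 note: fluorescence at 594 nm reports NEIL2 cutting and release of a quenched double-stranded DNA oligo substrate, reduced signal read as inhibition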
T3 sequence (whole entry): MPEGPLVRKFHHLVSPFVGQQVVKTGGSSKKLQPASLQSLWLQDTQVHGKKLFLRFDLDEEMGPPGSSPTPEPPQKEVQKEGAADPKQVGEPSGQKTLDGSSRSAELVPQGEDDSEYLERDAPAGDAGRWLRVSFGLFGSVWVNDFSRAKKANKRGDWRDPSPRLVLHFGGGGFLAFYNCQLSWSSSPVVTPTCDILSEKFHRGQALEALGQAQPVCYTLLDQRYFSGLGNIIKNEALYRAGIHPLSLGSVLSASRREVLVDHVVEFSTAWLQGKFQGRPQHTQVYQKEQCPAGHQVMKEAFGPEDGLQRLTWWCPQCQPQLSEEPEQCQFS
Description: Inhibition of NEIL2 by quantifying inhibition of NEIL2-mediated cleavage and dissociation of quenched duplex DNA oligonucleotides, measured as fluorescence at 594 nm.

[8] = molecular target: Methyl-CpG-binding domain protein 4 (Homo sapiens) (UniProt O95243);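 note: MBD4 activity read as fluorescence at 594 nm from cleavage and release of a quenched duplex DNA oligonucleotide, with APE1 coupled to incise the strand and raise turnover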
Description: Inhibition of MBD4 by quantifying inhibition of MBD4-mediated cleavage and dissociation of quenched duplex DNA oligonucleotides, measured as fluorescence at 594 nm. To generate a functional strand incision and increase turn-over this assay is coupled to APE1.

[9] = molecular target: N-glycosylase/DNA lyase (Homo sapiens) (UniProt O15527);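 note: OGG1 cleavage of a quenched duplex DNA oligonucleotide, coupled to APE1 for strand incision, read as fluorescence at 594 nm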
Description: Inhibition of OGG1 by quantifying inhibition of OGG1-mediated cleavage and dissociation of quenched duplex DNA oligonucleotides, measured as fluorescence at 594 nm. To generate a functional strand incision and increase turn-over this assay is coupled to APE1.

[10] = molecular target: T4, Single-strand selective monofunctional uracil DNA glycosylase (Homo sapiens) (UniProt Q53HV7);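 note: enzymatic SMUG1 assay coupled with APE1, reading fluorescence at 594 nm released when a quenched double-stranded DNA oligonucleotide substrate is cleaved and separated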
T4 sequence (whole entry): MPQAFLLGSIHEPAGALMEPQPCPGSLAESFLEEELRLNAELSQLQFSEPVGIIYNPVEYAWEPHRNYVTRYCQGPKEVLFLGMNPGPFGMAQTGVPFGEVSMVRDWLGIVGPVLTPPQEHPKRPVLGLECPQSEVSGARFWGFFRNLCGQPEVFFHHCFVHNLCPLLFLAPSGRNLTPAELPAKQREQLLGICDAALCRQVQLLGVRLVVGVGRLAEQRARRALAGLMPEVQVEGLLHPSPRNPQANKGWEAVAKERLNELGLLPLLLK
Description: Inhibition of SMUG1 by quantifying inhibition of SMUG1-mediated cleavage and dissociation of quenched duplex DNA oligonucleotides, measured as fluorescence at 594 nm. To generate a functional strand incision and increase turn-over this assay is coupled to APE1.

G/T mismatch-specific thymine DNA glycosylase (Homo sapiens), sequence (Q13569 whole entry): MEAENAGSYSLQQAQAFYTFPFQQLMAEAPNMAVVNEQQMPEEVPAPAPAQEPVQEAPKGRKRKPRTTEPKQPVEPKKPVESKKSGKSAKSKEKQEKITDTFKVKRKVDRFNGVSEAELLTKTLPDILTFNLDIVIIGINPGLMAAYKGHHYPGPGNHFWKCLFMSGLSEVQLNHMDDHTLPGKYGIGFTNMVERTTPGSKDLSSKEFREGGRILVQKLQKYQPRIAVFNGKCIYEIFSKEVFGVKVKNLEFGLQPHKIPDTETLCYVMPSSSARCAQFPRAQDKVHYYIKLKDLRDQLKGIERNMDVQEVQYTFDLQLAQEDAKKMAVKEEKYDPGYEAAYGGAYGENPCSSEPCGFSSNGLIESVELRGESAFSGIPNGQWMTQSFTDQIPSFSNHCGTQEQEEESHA
N-glycosylase/DNA lyase (Homo sapiens), sequence (O15527 whole entry): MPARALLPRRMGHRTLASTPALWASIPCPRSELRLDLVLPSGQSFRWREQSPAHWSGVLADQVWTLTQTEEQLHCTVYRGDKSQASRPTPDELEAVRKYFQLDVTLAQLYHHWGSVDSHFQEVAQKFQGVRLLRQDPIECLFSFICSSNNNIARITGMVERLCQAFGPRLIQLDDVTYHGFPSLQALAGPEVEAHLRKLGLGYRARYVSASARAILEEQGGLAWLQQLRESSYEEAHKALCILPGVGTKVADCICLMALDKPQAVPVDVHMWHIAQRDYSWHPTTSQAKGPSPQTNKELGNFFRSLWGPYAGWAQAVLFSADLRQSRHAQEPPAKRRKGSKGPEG
Methyl-CpG-binding domain protein 4 (Homo sapiens), sequence (O95243 whole entry, the tested form may be a part): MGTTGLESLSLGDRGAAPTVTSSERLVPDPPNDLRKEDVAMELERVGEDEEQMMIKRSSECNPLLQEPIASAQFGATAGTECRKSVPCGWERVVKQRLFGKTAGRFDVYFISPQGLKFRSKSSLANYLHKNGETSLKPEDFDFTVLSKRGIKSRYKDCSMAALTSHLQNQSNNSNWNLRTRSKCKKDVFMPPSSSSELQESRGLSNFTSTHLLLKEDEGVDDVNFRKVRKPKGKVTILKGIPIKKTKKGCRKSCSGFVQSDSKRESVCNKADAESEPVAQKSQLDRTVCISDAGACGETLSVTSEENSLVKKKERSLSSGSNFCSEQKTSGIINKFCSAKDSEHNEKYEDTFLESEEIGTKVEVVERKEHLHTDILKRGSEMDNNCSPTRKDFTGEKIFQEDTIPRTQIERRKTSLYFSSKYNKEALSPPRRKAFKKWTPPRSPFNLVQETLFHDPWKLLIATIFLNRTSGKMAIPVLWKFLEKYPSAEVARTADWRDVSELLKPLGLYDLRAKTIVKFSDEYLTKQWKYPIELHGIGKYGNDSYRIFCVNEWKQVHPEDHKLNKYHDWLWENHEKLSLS
Endonuclease 8-like 1 (Homo sapiens), sequence (Q96FI4 whole entry): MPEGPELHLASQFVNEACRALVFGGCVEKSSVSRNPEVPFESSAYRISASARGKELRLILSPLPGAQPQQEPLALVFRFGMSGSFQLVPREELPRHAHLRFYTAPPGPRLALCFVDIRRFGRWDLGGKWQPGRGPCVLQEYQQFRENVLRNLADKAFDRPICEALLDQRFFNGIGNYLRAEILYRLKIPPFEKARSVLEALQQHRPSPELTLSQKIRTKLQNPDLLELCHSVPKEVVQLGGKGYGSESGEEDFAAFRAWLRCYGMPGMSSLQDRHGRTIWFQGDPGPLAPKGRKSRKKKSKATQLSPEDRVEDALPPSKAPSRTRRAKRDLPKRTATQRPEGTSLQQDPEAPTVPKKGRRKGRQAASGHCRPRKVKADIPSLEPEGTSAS
Uracil-DNA glycosylase (Homo sapiens), sequence (P13051 whole entry): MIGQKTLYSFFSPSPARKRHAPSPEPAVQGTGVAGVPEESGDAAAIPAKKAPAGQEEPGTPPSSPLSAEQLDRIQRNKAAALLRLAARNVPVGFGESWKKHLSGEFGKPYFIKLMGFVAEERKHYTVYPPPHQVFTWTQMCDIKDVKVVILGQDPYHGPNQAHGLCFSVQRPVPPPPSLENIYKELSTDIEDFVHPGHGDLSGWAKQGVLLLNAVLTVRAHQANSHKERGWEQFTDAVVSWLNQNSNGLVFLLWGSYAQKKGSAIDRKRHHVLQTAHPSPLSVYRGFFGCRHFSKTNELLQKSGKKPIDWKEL
DNA-3-methyladenine glycosylase (Homo sapiens), sequence (P29372 whole entry): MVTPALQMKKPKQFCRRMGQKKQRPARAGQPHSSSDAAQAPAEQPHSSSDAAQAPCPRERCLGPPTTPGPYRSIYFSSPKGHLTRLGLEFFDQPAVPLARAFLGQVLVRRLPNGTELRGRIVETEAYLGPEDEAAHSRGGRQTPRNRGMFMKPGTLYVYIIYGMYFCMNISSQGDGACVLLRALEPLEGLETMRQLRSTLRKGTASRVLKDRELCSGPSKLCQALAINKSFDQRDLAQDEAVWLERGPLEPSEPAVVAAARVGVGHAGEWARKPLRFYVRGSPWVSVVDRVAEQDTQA

In the case of `Fc1cccc(/C=N/N=C/c2cccc(F)c2)c1`, the inhibition [1] is reported as -2.88%, the inhibition [2] is reported as -5.18% and the inhibition [3] is reported as 5.75%. It also gave an inhibition [4] of 15.4%, an inhibition [5] of 1.53% and an inhibition [6] of -6.06%. The inhibition [7] was -1.37% and the inhibition [8] was 4.13%.
With `CNC(=O)[C@H]1O[C@@H](n2cnc3c(NCc4cccc(I)c4)ncnc32)[C@H](O)[C@@H]1O` the inhibition [1] was 2.83%, the inhibition [2] was -7.1% and the inhibition [3] was 6.72%. For the same compound, the inhibition [4] was -2.73%, the inhibition [5] was 14.2% and the inhibition [6] was -5.89%. The inhibition [7] was -8.76% and the inhibition [8] was 10.4%.
For `CC1(C)N=C(C2CCCCC2)c2ccc(C#N)cc2N(c2ccc(NCCNC3CCOCC3)cc2)C1=O`, the inhibition [1] was 7.31%, the inhibition [2] was 4.75% and the inhibition [3] was 5.19%. The inhibition [4] was 19.6%, the inhibition [5] was 1.14% and the inhibition [7] was -3.41%. The inhibition [8] was 10.6%.
Compound `CCCNC(=O)c1nnc2c(-c3c(F)cccc3OC)cccc2c1N` has an inhibition [1] of 12.4%, an inhibition [2] of 10.5% and an inhibition [3] of 24.5%. For the same compound, the inhibition [4] was 27.8%, the inhibition [5] was 24.9% and the inhibition [6] was -1.98%. It also gave an inhibition [7] of -2.64% and an inhibition [8] of 26.8%.
Work on `O=C(O)[C@H]1O[C@H](OP(=O)(O)OP(=O)(O)OC[C@H]2O[C@@H](n3ccc(=O)[nH]c3=O)[C@H](O)[C@@H]2O)[C@H](O)[C@@H](O)[C@@H]1O` yielded an inhibition [1] of 24.7%, an inhibition [3] of 15.8% and an inhibition [4] of 15.4%. For the same compound, the inhibition [5] was 14.9%, the inhibition [7] was -7.23% and the inhibition [8] was 18.3%.
For `Cc1ccccc1C(=O)Nc1ccc(C(=O)N2CCCC(N(C)C)c3ccccc32)cc1` (stereo not drawn), the inhibition [1] was 11.6%, the inhibition [2] was 11.6% and the inhibition [3] was 18.4%. The inhibition [4] was 21.2%, the inhibition [5] was 10.3% and the inhibition [6] was -2.08%. For the same compound, the inhibition [8] was 19.4%.
In the case of `CCN(c1ccccc1)c1cc(NC)[n+](C)c(C)n1`, the inhibition [1] is reported as 1.67%, the inhibition [2] is reported as -3.4% and the inhibition [3] is reported as 7.48%. It also gave an inhibition [4] of 30.3%, an inhibition [5] of 7.99% and an inhibition [6] of -8.21%. For the same compound, the inhibition [7] was 4.75% and the inhibition [8] was 25.3%.
Work on `CN(Cc1cccc(F)c1CNc1cc(F)c(S(=O)(=O)Nc2cscn2)c(F)c1)C(C)(C)C` yielded an inhibition [1] of 20.1%, an inhibition [2] of 2.08% and an inhibition [3] of 4.92%. For the same compound, the inhibition [4] was 18.7%, the inhibition [5] was 40.5% and the inhibition [6] was -9.64%. It also gave an inhibition [7] of -2.39% and an inhibition [8] of 28.6%.
`COC[C@@H](c1ccc(C(F)(F)F)cc1)N1CCN(C2(C)CCN(C(=O)c3c(C)ncnc3C)CC2)C[C@@H]1C` was tested, and the inhibition [1] was -7.67%, the inhibition [2] was -4.58% and the inhibition [3] was -1.76%. It also gave an inhibition [4] of 16.2%, an inhibition [5] of 7.5% and an inhibition [6] of -3.97%. It also gave an inhibition [8] of 11.1%.
Compound `C[C@H]1CN(C[C@H](Cc2ccccc2)C(=O)NCC(=O)O)CC[C@@]1(C)c1cccc(O)c1` has an inhibition [1] of 22.9%, an inhibition [2] of -4.44% and an inhibition [3] of 37.5%. It also gave an inhibition [4] of 34.4%, an inhibition [5] of 40.2% and an inhibition [6] of -7.63%. It also gave an inhibition [7] of -9.01% and an inhibition [8] of 21.1%.
Compound `C[C@H](NC(=O)[C@H](Cc1ccccc1)NC(=O)[C@H](CCC(N)=O)NC(=O)CNC(=O)[C@@H]1CCCN1C(=O)[C@H](Cc1ccccc1)NC(=O)[C@@H](N)Cc1ccc(O)cc1)C(=O)N[C@@H](Cc1ccccc1)C(=O)N[C@@H](CO)C(=O)O` has an inhibition [1] of 6.08%, an inhibition [2] of 13.2% and an inhibition [3] of 9.05%. It also gave an inhibition [4] of 21.2%, an inhibition [5] of 2.52% and an inhibition [6] of -4.67%. It also gave an inhibition [7] of 2.96% and an inhibition [8] of 12.6%.
`CCCCCCCC/C=C\CCCCCCCC(N)=O` gave an inhibition [1] of 17.3%, an inhibition [9] of 4.44% and an inhibition [2] of 12.4%. For the same compound, the inhibition [3] was 12.1%, the inhibition [4] was 2.66% and the inhibition [5] was 15.9%. It also gave an inhibition [6] of -8.52%, an inhibition [7] of 2.51% and an inhibition [10] of -2.07%.
`CC1(C)Cc2c(CN3CCC4(CC3)CCN(C(=O)c3ccc(N)cn3)CC4)cccc2O1` was tested, and the inhibition [1] was 8.62%, the inhibition [2] was 7.27% and the inhibition [3] was -2.08%. It also gave an inhibition [4] of 8.82%, an inhibition [5] of 2.36% and an inhibition [7] of -6.46%. For the same compound, the inhibition [8] was 21.4%.
`c1ccc(C2CN3CCC2CC3)cc1` (stereo not drawn) was tested, and the inhibition [1] was 3.54%, the inhibition [2] was 0.158% and the inhibition [3] was 22.8%. The inhibition [4] was 26.2%, the inhibition [5] was 22.9% and the inhibition [6] was -9.01%. For the same compound, the inhibition [7] was -3.92% and the inhibition [8] was 22%.
For `Cc1cc(C)c(NC(=O)C2CC3CCC2C3)c(C)c1` (stereo not drawn), the inhibition [1] was 7.56%, the inhibition [2] was -1.18% and the inhibition [3] was 5.7%. The inhibition [4] was 6.35%, the inhibition [5] was 27.8% and the inhibition [6] was -9.01%. The inhibition [8] was 26.4%.
In the case of `O=C1c2ccccc2C(Cc2ccncc2)(Cc2ccncc2)c2ccccc21`, the inhibition [1] is reported as 12.1%, the inhibition [2] is reported as 6.83% and the inhibition [3] is reported as 21.3%. It also gave an inhibition [4] of 20.4%, an inhibition [5] of 8.2% and an inhibition [7] of -2.64%. It also gave an inhibition [8] of 23.6%.
With `CC(C)(C(=O)O)c1ccc(C(O)CCCN2CCC(C(O)(c3ccccc3)c3ccccc3)CC2)cc1` (stereo not drawn) the inhibition [1] was -4.6%, the inhibition [9] was -9.14% and the inhibition [2] was -7.32%. The inhibition [3] was 8.16%, the inhibition [4] was 2.66% and the inhibition [5] was -0.107%. It also gave an inhibition [6] of -8.82%, an inhibition [7] of 8% and an inhibition [10] of -3.57%.
Work on `O=C(Nc1cccc(C(F)(F)F)c1)c1cc(Cl)ccc1O` yielded an inhibition [1] of 23.5%, an inhibition [9] of -6.43% and an inhibition [2] of -4.58%. For the same compound, the inhibition [3] was 4.24%, the inhibition [4] was 5.52% and the inhibition [5] was 0.595%. It also gave an inhibition [6] of -2.86%, an inhibition [7] of -5.45% and an inhibition [10] of 0.608%.
Work on `CNc1nc(Nc2ccccc2)nc(OC(C(F)(F)F)C(F)(F)F)n1` yielded an inhibition [1] of -9.6%, an inhibition [9] of -3.77% and an inhibition [2] of 2.83%. For the same compound, the inhibition [3] was 4.54%, the inhibition [4] was 19.6% and the inhibition [5] was -4.15%. The inhibition [6] was 1.86%, the inhibition [7] was 1.69% and the inhibition [10] was 2.08%.
`CN1CCC(C(=O)c2cccc(NC(=O)c3c(F)cc(F)cc3F)n2)CC1` was tested, and the inhibition [1] was 2.3%, the inhibition [9] was -2.69% and the inhibition [2] was 4.54%. The inhibition [3] was 19.6%, the inhibition [4] was -6.14% and the inhibition [5] was 9.62%. For the same compound, the inhibition [6] was -8.11%, the inhibition [7] was -1.73% and the inhibition [10] was -9.63%.
Compound `C[C@H](C[C@H](N)C(=O)O)C(=O)O` has an inhibition [1] of 14.2%, an inhibition [2] of -6.51% and an inhibition [3] of 0.112%. The inhibition [4] was -6.04%, the inhibition [5] was 17% and the inhibition [7] was 0.414%. The inhibition [8] was 13.5%.
`CN1CCN(Cc2ccc(-c3cccc(C(=O)Nc4ccccc4CC(=O)O)c3)cc2)CC1` gave an inhibition [1] of 12.7%, an inhibition [2] of 17.2% and an inhibition [3] of 14.1%. For the same compound, the inhibition [4] was -1.91%, the inhibition [5] was 17.7% and the inhibition [6] was -2.65%. The inhibition [7] was -2.64% and the inhibition [8] was 18.1%.
With `CC[C@H](NC(=O)c1c(C)c(-c2ccccc2)nc2ccccc12)c1ccccc1` the inhibition [1] was 4.04%, the inhibition [9] was -1.61% and the inhibition [2] was -0.204%. For the same compound, the inhibition [3] was -2.42%, the inhibition [4] was 9.25% and the inhibition [5] was 0.0213%. It also gave an inhibition [6] of -6.75%, an inhibition [7] of -1.98% and an inhibition [10] of -0.0333%.
For `c1cnc2cc3c(cc2n1)[C@@H]1CNC[C@H]3C1`, the inhibition [1] was 9.33%, the inhibition [2] was 4.16% and the inhibition [3] was 13.7%. For the same compound, the inhibition [4] was 12.9%, the inhibition [5] was 34.7% and the inhibition [6] was -9.92%. The inhibition [8] was 15.3%.
